According to patent US20240208961A1, “EIF4E INHIBITORS AND USES THEREOF” (PIC Therapeutics, Inc., priority 2022, published 2024):

Experiments:
ZR-75-1 = test: Cell viability assay, adherent cell line, 5 day Alamar Blue (Example 8): ZR-75-1; type: cell-based; details: Homo sapiens, 120 h, ZR-75-1, Breast Cancer Cell Viability
Method: Cell viability assays were performed on certain compounds of the disclosure, according to the following procedure.
Cell line specific media conditions used:
The procedure for adherent cell line compound screening was as follows:
• Cells were seeded in 96-well cell culture treated tissue culture plates: ZR-75-1, NIHOVCAR3, T47D, and LOVO cells 4000 cells/well; and HPAFII 3000 cell/well
Day 3: Compound Dilution and Dosing
• 5-fold serial dilution (8 point) of each compound in DMSO 0-25 mM in compound storage plates was prepared (stored at −80° C. if not to be used immediately). • Cells were rinsed with 1% FBS Media (appropriate to cell line as described above) and replaced with 87.5 μL media prior to dosing. HPAFII was screened in normal 10% FBS Media. • DMSO compound dilution series was diluted in 1% FBS media (appropriate to cell line as described above)—2 μL in 248 μL to give an 8× final concentration. • Cells were dosed 12.5 μL/well in triplicate to give final dose curved on cells 0-25 μM. • Media blank 100 μL/well×8 was set up. • All plates were incubated at 37° C.
Day 8: 5 Day Viability Assay
• Alamar Blue viability reagent was added (10 μL per well) and incubated for 3 hours at 37° C. prior to fluorescence detection (Ex560 nm/Em590 nm) on a Varioskan Lux multimode plate reader.
Results from cell viability assays are summarized in Table 23, wherein A represents IC50≤1 μM; B represents 1 μM<IC50≤8 μM; and C represents IC50>8 μM. Blank cells indicate that the compound was not tested in a particular assay.

Human eIF4E (aa 28-217) = biological target: T1, Human eIF4E (aa 28-217) (Homo sapiens, UniProt P06730); test: 4G-eIF4E protein-based assay (TR-FRET, biotin labeled 4G2 peptide); type: binding
T1 construct: Human eIF4E (aa 28-217) with a C-terminal His-tag; made in house
T1 sequence (P06730 28-217): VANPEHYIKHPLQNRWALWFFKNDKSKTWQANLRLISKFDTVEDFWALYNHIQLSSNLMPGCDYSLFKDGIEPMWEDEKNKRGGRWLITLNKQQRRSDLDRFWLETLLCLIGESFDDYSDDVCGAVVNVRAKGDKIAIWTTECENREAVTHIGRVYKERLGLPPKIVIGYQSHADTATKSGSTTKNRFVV
Method: Human eIF4E ([…]) with a C-terminal His-tag was expressed in E. coli in inclusion bodies. The protein was solubilized with 8 M urea and purified under denaturing conditions using nickel-charged HisTrap HP columns (GE Healthcare). The purified protein was then refolded by diluting in 20 mM Hepes pH 7.0, 0.5 M NaCl, 1 mM DTT, […], 0.5 M arginine plus 6 M urea, and then dialyzing overnight into the same buffer without the urea. The protein was further dialyzed into 20 mM Hepes, pH 6.5, 50 mM NaCl, 1 mM EDTA, 1 mM DTT, and concentrated using Hitrap SP sepharose FF columns (GE Healthcare). The concentrated protein was dialyzed into 20 mM Hepes, pH 7.0, 0.5M NaCl, 5 mM DTT and […], and stored at -80° C. until use. Test compounds (3.43 mM stock in DMSO) were diluted 2-fold in series in DMSO (10 concentration points). Compound solutions (1.2 μL/well) were added into black 384-well polypropylene microplates (Matrix, Thermal Scientific). […] The samples were incubated at room temperature (20-23° C.) for 4 hours. Biotin labeled 4G2 peptide ([…])-NH2, 1.75 μM stock in DMSO) was diluted to 0.13 μM in Assay Buffer (without DTT) and 5 μL/well was added. The samples were incubated at room temperature for 20 min. Five microliters per well of 15 nM Eu-streptavidin (Eu-SA, Perkin Elmer) and 96 nM Allophycocyanin (APC)-anti His antibody (Columbia Biosciences) in Assay Buffer (without DTT) were then added and the samples were incubated at room temperature for 20 min. Assay signals were monitored by reading excitation at 340 nm and emission fluorescence at 615 nm and 665 nm on an Envision reader (Perkin Elmer). Normalized TR-FRET (time-resolved fluorescence resonance energy transfer) assay signal (Rn) was calculated by the formula: […] C=(Ac-Ba)/(Dc-Bd) • Where Ac is the fluorescence intensity of 1.5 nM Eu-SA in the assay buffer at 665 nm. IC50 values were calculated using xLFit program (IDBS).

Compound | IC50 (ZR-75-1) [nM] | IC50 (Human eIF4E (aa 28-217)) [nM]
CC(C)Cc1sc(Nc2ncc(-c3cccs3)cc2C(=O)O)nc1C1=CCCC1 [Compound I-8] | ≤ 1000 | 500 to 1000
CC(C)Cc1sc(Nc2ncc(-c3cccs3)cc2C(=O)O)nc1C1=CCOCC1 [Compound I-1] | ≤ 1000 | 500 to 1000
CC(C)Cc1sc(Nc2ncc(-c3cccs3)cc2C(=O)O)nc1C1CCCCC1 [Compound I-3] | ≤ 1000 | 500 to 1000
CC(C)Cc1sc(Nc2ncc(-c3cccs3)cc2C(=O)O)nc1C(C)(C)C [Compound I-11] | ≤ 1000 | 500 to 1000
CC(C)Cc1sc(Nc2ncc(-c3cccs3)cc2C(=O)O)nc1C1(C)CCCCC1 [Compound I-27] | ≤ 1000 | ≤ 500
CC(C)Cc1sc(Nc2ncc(-c3cccs3)cc2C(=O)O)nc1C1=CCCCC1 [Compound I-2] | ≤ 1000 | –
CC(C)Cc1sc(Nc2ncc(-c3cccs3)cc2C(=O)O)nc1C1CCC(F)(F)CC1 [Compound I-29] | ≤ 1000 | 500 to 1000
